The values below come from ChEMBL document CHEMBL1129561 (J Med Chem, 1996).

Assay [1] has as its target T1, Progesterone receptor (Homo sapiens, UniProt P06401).
T1 sequence (P06401 whole entry): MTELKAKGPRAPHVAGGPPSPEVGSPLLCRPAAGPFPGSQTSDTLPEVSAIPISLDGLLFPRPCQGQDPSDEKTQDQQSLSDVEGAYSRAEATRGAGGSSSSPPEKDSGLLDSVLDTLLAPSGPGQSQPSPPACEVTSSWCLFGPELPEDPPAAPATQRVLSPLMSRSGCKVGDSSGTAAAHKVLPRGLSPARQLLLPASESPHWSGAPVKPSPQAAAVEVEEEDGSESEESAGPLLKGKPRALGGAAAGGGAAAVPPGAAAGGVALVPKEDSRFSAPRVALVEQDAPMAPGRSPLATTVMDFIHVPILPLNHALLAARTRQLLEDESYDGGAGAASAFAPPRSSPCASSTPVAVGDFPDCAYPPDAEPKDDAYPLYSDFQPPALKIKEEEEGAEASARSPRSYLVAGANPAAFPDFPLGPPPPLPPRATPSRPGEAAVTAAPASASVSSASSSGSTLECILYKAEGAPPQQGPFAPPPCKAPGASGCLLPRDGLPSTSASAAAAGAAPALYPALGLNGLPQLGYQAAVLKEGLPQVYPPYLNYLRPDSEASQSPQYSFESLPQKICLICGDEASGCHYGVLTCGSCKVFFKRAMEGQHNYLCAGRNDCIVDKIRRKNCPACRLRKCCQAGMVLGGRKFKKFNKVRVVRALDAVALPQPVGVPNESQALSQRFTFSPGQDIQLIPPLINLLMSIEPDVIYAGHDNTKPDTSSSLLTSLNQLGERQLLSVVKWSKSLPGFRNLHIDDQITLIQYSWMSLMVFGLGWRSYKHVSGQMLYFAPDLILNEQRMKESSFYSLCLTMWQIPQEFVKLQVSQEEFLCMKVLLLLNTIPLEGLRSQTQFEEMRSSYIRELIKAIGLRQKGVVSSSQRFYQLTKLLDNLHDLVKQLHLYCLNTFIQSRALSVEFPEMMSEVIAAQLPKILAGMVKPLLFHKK

Assay [2] has as its target T2, Androgen receptor (Homo sapiens, UniProt P10275).
T2 sequence (P10275 whole entry): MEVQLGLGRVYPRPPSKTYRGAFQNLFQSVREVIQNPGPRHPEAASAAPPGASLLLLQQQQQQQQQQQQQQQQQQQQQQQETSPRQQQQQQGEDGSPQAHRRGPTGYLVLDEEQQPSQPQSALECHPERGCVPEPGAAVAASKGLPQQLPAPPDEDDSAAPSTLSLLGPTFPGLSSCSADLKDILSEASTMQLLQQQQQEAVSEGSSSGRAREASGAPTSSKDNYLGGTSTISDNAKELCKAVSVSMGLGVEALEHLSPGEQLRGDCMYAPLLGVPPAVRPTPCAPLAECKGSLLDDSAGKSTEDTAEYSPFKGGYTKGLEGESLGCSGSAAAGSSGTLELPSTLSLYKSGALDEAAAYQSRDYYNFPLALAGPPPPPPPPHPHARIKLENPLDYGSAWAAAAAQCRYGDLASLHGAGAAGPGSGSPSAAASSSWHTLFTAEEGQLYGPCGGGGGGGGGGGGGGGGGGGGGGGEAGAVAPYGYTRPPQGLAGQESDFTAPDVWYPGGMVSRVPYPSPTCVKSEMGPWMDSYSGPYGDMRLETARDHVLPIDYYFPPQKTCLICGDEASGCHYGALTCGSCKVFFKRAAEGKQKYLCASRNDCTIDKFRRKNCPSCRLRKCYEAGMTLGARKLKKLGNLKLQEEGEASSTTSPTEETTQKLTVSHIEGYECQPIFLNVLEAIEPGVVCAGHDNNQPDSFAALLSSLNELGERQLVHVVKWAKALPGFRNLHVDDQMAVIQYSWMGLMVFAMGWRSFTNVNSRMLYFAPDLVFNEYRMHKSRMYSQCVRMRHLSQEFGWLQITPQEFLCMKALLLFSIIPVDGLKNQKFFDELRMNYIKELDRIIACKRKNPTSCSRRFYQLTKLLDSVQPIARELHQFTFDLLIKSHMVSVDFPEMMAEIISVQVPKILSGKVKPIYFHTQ
Description: Binding affinity determined against human Androgen receptor

Assay [3] addresses T1, Progesterone receptor. This is another data set of the same source.
For assay [4], the target named is T3, Progesterone receptor (Homo sapiens) (UniProt P06401).
T3 sequence (whole entry): T1 sequence (P06401 whole entry)
Particulars: CV-1.

Assay [5] addresses T1, Progesterone receptor. The source holds these as a separate data set.
Assay [6] deals with T4, Glucocorticoid receptor (Homo sapiens, UniProt P04150).
T4 sequence (P04150 whole entry): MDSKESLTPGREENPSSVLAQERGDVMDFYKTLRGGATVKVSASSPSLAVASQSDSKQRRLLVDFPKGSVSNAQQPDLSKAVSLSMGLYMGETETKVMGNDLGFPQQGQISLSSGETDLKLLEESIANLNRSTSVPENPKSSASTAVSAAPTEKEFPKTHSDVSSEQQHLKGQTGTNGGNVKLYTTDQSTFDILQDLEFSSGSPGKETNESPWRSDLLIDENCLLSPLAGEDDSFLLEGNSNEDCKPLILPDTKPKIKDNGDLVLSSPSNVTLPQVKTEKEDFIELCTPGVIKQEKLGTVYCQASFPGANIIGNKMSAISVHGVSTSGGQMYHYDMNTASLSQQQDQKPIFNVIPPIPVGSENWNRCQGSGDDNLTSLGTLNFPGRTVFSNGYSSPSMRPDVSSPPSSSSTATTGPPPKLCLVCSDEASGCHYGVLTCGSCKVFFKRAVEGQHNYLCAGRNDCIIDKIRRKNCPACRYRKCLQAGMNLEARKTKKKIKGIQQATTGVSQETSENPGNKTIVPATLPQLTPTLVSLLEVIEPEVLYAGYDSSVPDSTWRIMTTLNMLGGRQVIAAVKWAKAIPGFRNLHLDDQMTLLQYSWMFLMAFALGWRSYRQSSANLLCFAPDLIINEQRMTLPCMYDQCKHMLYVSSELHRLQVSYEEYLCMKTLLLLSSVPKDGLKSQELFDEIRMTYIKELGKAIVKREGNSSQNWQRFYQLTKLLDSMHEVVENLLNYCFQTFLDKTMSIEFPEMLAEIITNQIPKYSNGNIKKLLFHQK
Description: Binding affinity was determined for human glucocorticoid receptor(hGR).

Assay [7] concerns the target T1, Progesterone receptor. The source holds these as a separate data set.
In assay [8] the target is T5, Estrogen receptor (Homo sapiens, UniProt Q92731+P03372).
Description: Inhibitory activity against human estrogen receptor
The target in assay [9] is T4, Glucocorticoid receptor. Put plainly: Inhibitory activity against human glucocorticoid receptor (hGR).
For assay [10], the target named is T4, Glucocorticoid receptor. As to the kind of experiment: Binding affinity against human glucocorticoid receptor(hGR).
Assay [11] concerns the target T2, Androgen receptor. This is another data set of the same source.
Description: Inhibitory activity against human Androgen receptor
Assay [12] deals with T6, Mineralocorticoid receptor (Homo sapiens, UniProt P08235).
T6 sequence (P08235 whole entry): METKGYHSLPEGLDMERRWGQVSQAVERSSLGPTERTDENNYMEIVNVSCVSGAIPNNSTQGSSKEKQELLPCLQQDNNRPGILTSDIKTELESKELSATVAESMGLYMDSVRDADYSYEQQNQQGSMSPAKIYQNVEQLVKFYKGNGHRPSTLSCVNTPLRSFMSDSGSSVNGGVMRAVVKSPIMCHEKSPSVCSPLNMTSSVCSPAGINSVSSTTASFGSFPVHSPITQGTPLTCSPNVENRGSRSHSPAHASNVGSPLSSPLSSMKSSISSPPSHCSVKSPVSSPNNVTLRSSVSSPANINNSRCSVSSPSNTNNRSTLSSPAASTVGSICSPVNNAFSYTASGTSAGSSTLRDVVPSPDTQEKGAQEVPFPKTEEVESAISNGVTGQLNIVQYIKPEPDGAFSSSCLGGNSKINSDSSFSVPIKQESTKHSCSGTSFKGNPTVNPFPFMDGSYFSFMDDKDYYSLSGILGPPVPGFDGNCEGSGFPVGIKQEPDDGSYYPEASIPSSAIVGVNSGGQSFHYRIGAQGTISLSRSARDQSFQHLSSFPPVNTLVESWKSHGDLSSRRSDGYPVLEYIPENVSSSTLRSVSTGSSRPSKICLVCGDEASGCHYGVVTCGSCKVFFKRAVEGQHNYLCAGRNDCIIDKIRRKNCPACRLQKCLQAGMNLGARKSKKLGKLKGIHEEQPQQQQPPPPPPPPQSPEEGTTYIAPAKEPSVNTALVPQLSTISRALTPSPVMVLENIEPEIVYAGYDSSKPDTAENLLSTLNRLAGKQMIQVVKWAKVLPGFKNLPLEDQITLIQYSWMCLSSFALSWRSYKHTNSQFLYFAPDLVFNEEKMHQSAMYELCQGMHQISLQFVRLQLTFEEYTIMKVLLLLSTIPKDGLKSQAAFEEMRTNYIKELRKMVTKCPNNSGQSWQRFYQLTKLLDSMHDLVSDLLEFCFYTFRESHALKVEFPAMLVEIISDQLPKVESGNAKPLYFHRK
As to the kind of experiment: Inhibitory activity against human mineralocorticoid receptor (hMR).

The target of assay [13] is T5, Estrogen receptor. The source holds these as a separate data set.
Description: Binding affinity for human estrogen receptor
Assay [14] concerns the target T3, Progesterone receptor (Homo sapiens). The conditions noted are these: CV-1. This is another data set of the same source.
The target of assay [15] is T1, Progesterone receptor. As to the kind of experiment: Effective concentration against human Progesterone receptor B isoform expressed in CV-1 cells. Format: cell-based.
Assay [16] deals with T2, Androgen receptor. This is another data set of the same source.
Description: Binding affinity for human Androgen receptor
The target of assay [17] is T4, Glucocorticoid receptor. The source holds these as a separate data set.
For assay [18], the target named is T6, Mineralocorticoid receptor.

`C=C1C[C@H](C)CC(C)(C)[C@@H]1Cc1cc(OC)c(Br)cc1O` came in with an EC50 on Progesterone receptor [1] of 458 nM. Moreover, the Ki on Androgen receptor [2] was 696 nM; on Progesterone receptor [3], 22 nM; on Glucocorticoid receptor [6], 1040 nM. In addition, in [4], the Max inhibition was under 20%. The compound further returned an IC50 at Progesterone receptor [5] of over 10000 nM.

For `C=C1CC[C@@H](Br)C(C)(C)[C@H]1Cc1cc(OC)c(Br)cc1O`, the IC50 against Progesterone receptor [7] is 549 nM; against Estrogen receptor [8] it was over 10000 nM; against Glucocorticoid receptor [9], over 10000 nM; against Androgen receptor [11] it was 449 nM; on Progesterone receptor [5] it was 354 nM. Also, the values for the Ki on Glucocorticoid receptor [10] and at Progesterone receptor [3] were 3210 nM and 490 nM, respectively. For the same compound, the Max inhibition in assay [4] came to 83%.

`C=C1CCCC(C)(C)[C@H]1Cc1cc(OC)c(Br)cc1O`: the IC50 at Progesterone receptor [7] is 741 nM; in assay [12], 1500 nM; at Estrogen receptor [8], over 10000 nM; against Glucocorticoid receptor [9], over 10000 nM; against Progesterone receptor [5] it was 210 nM. The Ki is over 10000 nM on Estrogen receptor [13], 218 nM on Progesterone receptor [3] and 1770 nM at Glucocorticoid receptor [6]. This compound yielded a Max inhibition in assay [4] of 94%.

`C=C1CC[C@@H](Br)C(C)(C)[C@@H]1Cc1cc(OC)c(Br)cc1O` gave a concentration for a half-maximal effect (EC50) on Progesterone receptor [1] of 35 nM. For the same compound, the IC50 at Estrogen receptor [8] was over 10000 nM; against Glucocorticoid receptor [9] it was over 10000 nM; against Androgen receptor [11] it was 238 nM; at Progesterone receptor [5] it was 3500 nM. Besides, the figures for the Ki on Progesterone receptor [3] and on Glucocorticoid receptor [6] were 343 nM and 2470 nM, respectively. The compound also gave a Max inhibition in assay [4] of under 20%.

As to `C=C1C[C@H](CO)CC(C)(C)[C@@H]1Cc1cc(OC)c(Br)cc1O`, the IC50 at Progesterone receptor [7] is 3300 nM; on Progesterone receptor [5], 2000 nM. In addition, the Max inhibition in assay [14] and in assay [4] was 87% throughout. Also, the Ki on Androgen receptor [2] came to 6810 nM; on Progesterone receptor [3] it was 3250 nM; on Glucocorticoid receptor [6], 6390 nM.

For `C=C1C=C(C)CC(C)(C)C1C/C=C/c1cc(OC)c(Br)cc1O` (configuration not stated), the EC50 on Progesterone receptor [15] is 3300 nM. Moreover, the values for the inhibition constant (Ki) at Androgen receptor [2], at Progesterone receptor [3] and on Glucocorticoid receptor [6] were 2320 nM, 84 nM and 4420 nM, respectively. In [4], this compound yielded a Max inhibition of 61%. This compound came in with an IC50 on Progesterone receptor [5] of 1600 nM.

The compound `CN(C)c1ccc([C@H]2CC3(C)[C@@H](CC[C@]3(O)CCCO)[C@@H]3CCC4=CC(=O)CCC4=C32)cc1` (single isomer, unassigned) [ONAPRISTONE] yielded a Max inhibition in assay [14] of 99%. Further, the Ki at Androgen receptor [16] is over 100 nM; at Estrogen receptor [13], under 20 nM; on Glucocorticoid receptor [6], 41.8 nM. The IC50 is 27 nM at Glucocorticoid receptor [17], over 1000 nM against Estrogen receptor [8], 269 nM against Androgen receptor [11] and over 1000 nM in assay [18].

For orientation: EC50 means the concentration needed to bring the measured effect to its halfway point. Read a high EC50 as a less potent agent. Usually Ki stands for the equilibrium dissociation constant of an inhibitor or competing ligand from its target. High values mean lower affinity, low ones higher affinity. As a reminder, the IC50 is the concentration needed to halve the response being measured. A lower IC50 goes with greater potency.
